# PMC11347161, “Sequence diversity of apidaecin-like peptides arresting the terminating ribosome” (Nucleic Acids Research, 2024)
# Residues, ends and D or L forms follow the SMILES beside them. No end group written: not given here. *: point of attachment. Orn(α-tetramethylguanidino) = CN(C)C(=N[C@@H](CCCN)C(=O)*)N(C)C
# System: E. coli, BL21 cells
# Assay type: cell-based
# Conditions: for MIC values relative to wt Api: E. coli BL21, peptides from depletion selection; for MIC, TSB / MIC, LB / MIC, RPMI/Serum: E. coli BL21, broth microdilution, conducted in triplicate; for MIC, TSB: 33% TSB medium; for MIC, LB: LB medium; for MIC, RPMI/Serum: RPMI/Serum medium (RPMI-1640:MHB:FBS = 100:5:20)
# Protocol: The E. coli strain CA244 (lacZ125(Am), e14-, trpA49(Am), relA1, spoT1) was obtained from Escherichia coli Genetic Stock Center. The E. coli BL21(DE3) electrocompetent cells were from Sigma. The following media and components were implemented for bacteria growth: lysogeny broth (LB), minimal M9 medium, Tryptic Soy Broth (TSB), Roswell Park Memorial Institute medium 1640 (RPMI-1640), Mueller Hinton Broth (MHB), Fetal Bovine Serum (FBS). For various experiments E. coli cells were grown either in LB, in 33% TSB ([21]), in M9 medium supplemented with 1% Glycerol, 1 mM MgSO4, 0.1 mM CaCl2 and 10 μg/ml thiamine, or in RPMI/Serum (RPMI-1640:MHB:FBS = 100:5:20) ([23]).
# The minimal inhibitory concentration (MIC) test was performed using the broth microdilution method, adapted from the previously described procedure ([28]). The MIC tests were conducted in triplicate either in LB, 33% TSB or RPMI/Serum media.
# In order to quantitatively assess the antimicrobial activity of the synthesized peptides identified by both, the negative and positive selection strategies, we determined their minimal inhibitory concentrations (MICs) for the E. coli BL21 cells in three different media: LB, as a standard laboratory medium, 33% TSB, as a medium in which PrAMPs show increased antibacterial properties ([21]), and in the more therapeutically relevant RPMI/serum media ([23]) (Table 1). […] It appears, therefore, that the positive selection strategy is more prone to identifying biologically active peptides in comparison with the negative selection approaches. Furthermore, it became apparent that some multiple substitutions can even improve the antibacterial properties of the Api-like peptides.
Compound,MIC values relative to wt Api,"MIC, TSB [µM]","MIC, LB [µM]","MIC, RPMI/Serum [µM]"
CC[C@H](C)[C@H](NC(=O)[C@H](Cc1ccc(O)cc1)NC(=O)[C@@H](NC(=O)[C@H](CCCNC(=N)N)NC(=O)[C@H](CCCNC(=N)N)NC(=O)[C@H](CC(N)=O)NC(=O)[C@H](CC(N)=O)NC(=O)[C@H](CCCN)N=C(N(C)C)N(C)C)C(C)C)C(=O)N1CCC[C@H]1C(=O)N[C@@H](CC(N)=O)C(=O)N1CCC[C@H]1C(=O)N[C@@H](CCCNC(=N)N)C(=O)N1CCC[C@H]1C(=O)N1CCC[C@H]1C(=O)N[C@@H](Cc1c[nH]cn1)C(=O)N1CCC[C@H]1C(=O)N[C@@H](CCCNC(=N)N)C(=O)N[C@@H](CC(C)C)C(=O)O [Peptide R5N10] ({Orn(α-tetramethylguanidino)}-NNRRVYIPNPRPPHPRL-OH; C-terminus assumed),comparable to those of wt Api,8,32,1
CC[C@H](C)[C@H](NC(=O)[C@H](Cc1ccc(O)cc1)NC(=O)[C@@H](NC(=O)[C@H](CCCNC(=N)N)NC(=O)[C@H](CCCNC(=N)N)NC(=O)[C@H](CC(N)=O)NC(=O)[C@H](CC(N)=O)NC(=O)[C@H](CCCN)N=C(N(C)C)N(C)C)C(C)C)C(=O)N1CCC[C@H]1C(=O)N[C@@H](CCC(N)=O)C(=O)N1CCC[C@H]1C(=O)N[C@@H](CCCNC(=N)N)C(=O)N[C@@H](CC(N)=O)C(=O)N1CCC[C@H]1C(=O)N[C@@H](Cc1c[nH]cn1)C(=O)N[C@@H](CC(C)C)C(=O)N[C@@H](CCCNC(=N)N)C(=O)N[C@@H](CC(C)C)C(=O)O [Peptide R5N13L16] ({Orn(α-tetramethylguanidino)}-NNRRVYIPQPRNPHLRL-OH; C-terminus assumed),–,>64,>64,>64
CC(C)C[C@H](NC(=O)[C@H](CCCNC(=N)N)NC(=O)[C@@H]1CCCN1C(=O)[C@H](Cc1c[nH]c2ccccc12)NC(=O)[C@@H]1CCCN1C(=O)[C@@H]1CCCN1C(=O)[C@H](CCCNC(=N)N)NC(=O)[C@@H]1CCCN1C(=O)[C@H](CCC(N)=O)NC(=O)[C@@H]1CCCN1C(=O)[C@H](CC(=O)O)NC(=O)[C@H](CC(N)=O)NC(=O)[C@@H](NC(=O)[C@H](CCCNC(=N)N)NC(=O)[C@H](CCCNC(=N)N)NC(=O)[C@H](CC(N)=O)NC(=O)[C@H](CC(N)=O)NC(=O)[C@H](CCCN)N=C(N(C)C)N(C)C)[C@@H](C)O)C(=O)O [Peptide R5T6N7D8W15] ({Orn(α-tetramethylguanidino)}-NNRRTNDPQPRPPWPRL-OH; C-terminus assumed),–,>64,>64,>64
CC[C@H](C)[C@H](NC(=O)[C@H](Cc1ccc(O)cc1)NC(=O)[C@H](CCCNC(=N)N)NC(=O)[C@@H]1CCCN1C(=O)[C@H](CCCNC(=N)N)NC(=O)[C@H](CC(N)=O)NC(=O)[C@H](CC(N)=O)NC(=O)[C@H](CCCN)N=C(N(C)C)N(C)C)C(=O)N1CCC[C@H]1C(=O)N[C@@H](C)C(=O)N1CCC[C@H]1C(=O)N[C@@H](CCCNC(=N)N)C(=O)N1CCC[C@H]1C(=O)N1CCC[C@H]1C(=O)N[C@@H](Cc1c[nH]cn1)C(=O)N1CCC[C@H]1C(=O)N[C@@H](CCCNC(=N)N)C(=O)N[C@@H](CC(C)C)C(=O)O [Peptide R6A10] ({Orn(α-tetramethylguanidino)}-NNRPRYIPAPRPPHPRL-OH; C-terminus assumed),comparable to those of wt Api,0.5,4,0.0625
CC[C@H](C)[C@H](NC(=O)[C@H](Cc1ccc(O)cc1)NC(=O)[C@@H](NC(=O)[C@H](Cc1c[nH]c2ccccc12)NC(=O)[C@H](CCCNC(=N)N)NC(=O)[C@H](CC(N)=O)NC(=O)[C@H](CC(N)=O)NC(=O)[C@H](CCCN)N=C(N(C)C)N(C)C)C(C)C)C(=O)N[C@@H](CC(N)=O)C(=O)N[C@H](C(=O)N1CCC[C@H]1C(=O)N[C@@H](CCCNC(=N)N)C(=O)N[C@@H](CO)C(=O)N1CCC[C@H]1C(=O)N[C@@H](Cc1c[nH]cn1)C(=O)N1CCC[C@H]1C(=O)N[C@@H](CCCNC(=N)N)C(=O)N[C@@H](CC(C)C)C(=O)O)[C@@H](C)O [Peptide W5N9T10S13] ({Orn(α-tetramethylguanidino)}-NNRWVYINTPRSPHPRL-OH; C-terminus assumed),–,>64,>64,>64
GKNRPVYIYQPKPPIPRL [Peptide K2Y9K12I15],–,>64,>64,>64
GNNRPGYDRQPRPPHPRL [Peptide G6D8R9],–,8,16,4
GNNRPGYIPPPRPPHPRL [Peptide G6P10],–,0.5,8,4
GNNRPGYQPKPRPPHPRL [Peptide G6Q8K10],–,0.5,32,16
GNNRPVCAPQPAWPTGRL [C7A8A12W13T15G16],–,>64,>64,>64
GNNRPVECPQPRPRVPRL [Peptide E7C8R14V15],–,>64,>64,>64
GNNRPVYAYQPRPPHPRT [Peptide A8Y9T18],–,4,32,8
GNNRPVYIPKPPTPHPRL [Peptide K10P12T13],–,1,64,8
GNNRPVYIPKPRPPYPRK [Peptide K10Y15K18],–,2,8,2
"GNNRPVYIPQPRPPHPRL [Api Ib, Apidaecin 1b, reference compound]",–,0.5,16,4
GNRRPMYIPRPRPPHPRE [Peptide R3M6R10E18],–,8,>64,16
GNRRPVYIPVPRPPYPRL [Peptide R3V10Y15],–,2,8,2
GRNRPVYIPKPRPPHPRL [Peptide R2K10],–,0.25,2,0.5
GYNRPAYIPRPRPPHPRR [Peptide Y2A6R10R18],–,1,4,0.5
SVMRPVYKPQPRPPHPRL [Peptide S1V2M3K8],–,0.5,16,4
TNARPVNAPQPRPPHPRL [Peptide T1A3N7A8],–,8,64,16
